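Each compound was tested at five concentrations against cells in 96-well plates for 48 hours. At the GI50, growth is halved. The concentration for full growth arrest is given as TGI.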
How the values were obtained:
Assay in all cases: NCI tumour cell line growth inhibition, 48 h
[1] = test system: T-47D breast
[2] = test system: MDA-MB-435
[3] = test system: HL-60(TB) leukemia
[4] = test system: K-562 leukemia
[5] = test system: KM12 colon
[6] = test system: M14 melanoma
[7] = test system: MOLT-4 leukemia
[8] = test system: DU-145 prostate
[9] = test system: U251 CNS
[10] = test system: 786-0 renal
[11] = test system: SNB-75 CNS
[12] = test system: NCI/ADR-RES ovarian
[13] = test system: OVCAR-3 ovarian
[14] = test system: MALME-3M melanoma
[15] = test system: COLO 205 colon
[16] = test system: CAKI-1 renal
[17] = test system: HCT-15 colon
[18] = test system: HCC-2998 colon
[19] = test system: SF-295 CNS
[20] = test system: OVCAR-5 ovarian
[21] = test system: SF-268 CNS
[22] = test system: BT-549 breast
[23] = test system: IGROV1 ovarian
[24] = test system: NCI-H226 lung
[25] = test system: A549 NSCLC
[26] = test system: HOP-62 NSCLC
[27] = test system: NCI-H522 lung
[28] = test system: SK-MEL-28 melanoma
[29] = test system: HS 578T breast
[30] = test system: OVCAR-4 ovarian
[31] = test system: SF-539 CNS
[32] = test system: HT29 colon
[33] = test system: EKVX NSCLC
[34] = test system: SK-OV-3 ovarian
[35] = test system: HCT-116 colon
[36] = test system: ACHN renal
[37] = test system: UACC-257 melanoma
[38] = test system: SK-MEL-2 melanoma
[39] = test system: LOX IMVI melanoma
[40] = test system: MDA-MB-231 breast
[41] = test system: RPMI-8226 leukemia
[42] = test system: SN12C renal
[43] = test system: PC-3 prostate
[44] = test system: A498 renal
[45] = test system: OVCAR-8 ovarian
[46] = test system: CCRF-CEM leukemia
[47] = test system: NCI-H460 lung
[48] = test system: TK-10 renal
[49] = test system: HOP-92 NSCLC
[50] = test system: UACC-62 melanoma
[51] = test system: MCF7 breast
[52] = test system: UO-31 renal
[53] = test system: SK-MEL-5 melanoma
[54] = test system: NCI-H23 lung
[55] = test system: RXF 393 renal
[56] = test system: SNB-19 CNS
[57] = test system: SW-620 colon
[58] = test system: SR leukemia

C=C(C)[C@@H]1CC[C@]2(C(=O)NS(=O)(=O)c3ccccc3)CC[C@]3(C)[C@H](CC[C@@H]4[C@@]5(C)CC[C@H](OC(=O)NS(=O)(=O)c6ccccc6)C(C)(C)[C@@H]5CC[C@]43C)[C@@H]12
GI50 [1]: 1.74 µM | TGI [1]: 7.37 µM | GI50 [2]: 1.77 µM | TGI [2]: 4.89 µM | GI50 [3]: 2.24 µM | TGI [3]: 5.08 µM | GI50 [4]: 1.41 µM | TGI [4]: 17.3 µM | GI50 [5]: 1.34 µM | TGI [5]: 2.96 µM | GI50 [6]: 1.99 µM | TGI [6]: 6.89 µM | GI50 [7]: 2.58 µM | TGI [7]: 24 µM | GI50 [8]: 3.18 µM | TGI [8]: 13.8 µM | GI50 [9]: 1.46 µM | TGI [9]: 5.96 µM | GI50 [10]: 2.42 µM | TGI [10]: 6.93 µM | GI50 [11]: 3.44 µM | TGI [11]: 18.5 µM | GI50 [12]: 3.87 µM | TGI [12]: 24 µM | GI50 [13]: 1.85 µM | TGI [13]: 3.62 µM | GI50 [14]: 2.09 µM | TGI [14]: 5.32 µM | GI50 [15]: 1.54 µM | TGI [15]: 3.08 µM | GI50 [16]: 3.06 µM | TGI [16]: 22.5 µM | GI50 [17]: 1.62 µM | TGI [17]: 4.65 µM | GI50 [18]: 1.42 µM | TGI [18]: 2.85 µM | GI50 [19]: 0.281 µM | TGI [19]: 2.23 µM | GI50 [20]: 3.02 µM | TGI [20]: 11.8 µM | GI50 [21]: 3.03 µM | TGI [21]: 32.1 µM | GI50 [22]: 1.79 µM | TGI [22]: 6.31 µM | GI50 [23]: 2.46 µM | TGI [23]: 5.56 µM | GI50 [24]: 2.38 µM | TGI [24]: 13.8 µM | GI50 [25]: 3.24 µM | TGI [25]: 21.8 µM | GI50 [26]: 2.33 µM | TGI [26]: 6.83 µM | GI50 [27]: 2.48 µM | TGI [27]: 9.19 µM | GI50 [28]: 2.05 µM | TGI [28]: 5.32 µM | GI50 [29]: 1.49 µM | TGI [29]: 10.1 µM | GI50 [30]: 3.04 µM | TGI [30]: 51.4 µM | GI50 [31]: 1.27 µM | TGI [31]: 2.59 µM | GI50 [32]: 2.03 µM | TGI [32]: 11 µM | GI50 [33]: 3.17 µM | TGI [33]: 21.9 µM | GI50 [34]: 2.6 µM | TGI [34]: 8.22 µM | GI50 [35]: 1.47 µM | TGI [35]: 3.56 µM | GI50 [36]: 2.73 µM | TGI [36]: 9 µM | GI50 [37]: 3.06 µM | TGI [37]: 9.06 µM | GI50 [38]: 2.01 µM | TGI [38]: 4.97 µM | GI50 [39]: 1.56 µM | TGI [39]: 3.06 µM | GI50 [40]: 2.92 µM | TGI [40]: 12.1 µM | GI50 [41]: 1.37 µM | TGI [41]: 6.18 µM | GI50 [42]: 2.34 µM | TGI [42]: 15.7 µM | GI50 [43]: 2.11 µM | TGI [43]: 20.6 µM | GI50 [44]: 1.65 µM | TGI [44]: 4.69 µM | GI50 [45]: 2.89 µM | TGI [45]: 19.1 µM | GI50 [46]: 2.29 µM | TGI [46]: 19.5 µM | GI50 [47]: 1.49 µM | TGI [47]: 3.26 µM | GI50 [48]: 2.43 µM | TGI [48]: 10.3 µM | GI50 [49]: 1.9 µM | TGI [49]: 4.72 µM | GI50 [50]: 1.32 µM | TGI [50]: 2.92 µM | GI50 [51]: 2.93 µM | TGI [51]: 10.8 µM | GI50 [52]: 1.49 µM | TGI [52]: 3.04 µM | GI50 [53]: 1.48 µM | TGI [53]: 2.98 µM | GI50 [54]: 2.41 µM | TGI [54]: 8.51 µM | GI50 [55]: 1.61 µM | TGI [55]: 3.26 µM | GI50 [56]: 3.42 µM | TGI [56]: 18.2 µM | GI50 [57]: 3.27 µM | TGI [57]: 15.2 µM

CO/N=C(\COc1ccc2oc(-c3ccccc3)cc(=O)c2c1)c1ccc(F)cc1
GI50 [1]: 21.5 µM | TGI [1]: 59.3 µM | GI50 [2]: > 100 µM | TGI [2]: > 100 µM | GI50 [3]: 27.3 µM | TGI [3]: > 100 µM | GI50 [4]: 81.2 µM | TGI [4]: > 100 µM | GI50 [5]: 46.9 µM | TGI [5]: > 100 µM | GI50 [6]: 32.2 µM | TGI [6]: > 100 µM | GI50 [8]: 25 µM | TGI [8]: 76.5 µM | GI50 [9]: 18 µM | TGI [9]: 35.1 µM | GI50 [10]: 21.3 µM | TGI [10]: 43.7 µM | GI50 [11]: 17.4 µM | TGI [11]: 40.6 µM | GI50 [12]: 21 µM | TGI [12]: 49.9 µM | GI50 [13]: > 100 µM | TGI [13]: > 100 µM | GI50 [14]: 30.3 µM | TGI [14]: 67.1 µM | GI50 [15]: 59.5 µM | TGI [15]: > 100 µM | GI50 [16]: > 100 µM | TGI [16]: > 100 µM | GI50 [17]: 40.2 µM | TGI [17]: > 100 µM | GI50 [18]: 23.6 µM | TGI [18]: 54.4 µM | GI50 [19]: > 100 µM | TGI [19]: > 100 µM | GI50 [20]: 17.5 µM | TGI [20]: 39.1 µM | GI50 [58]: 15.7 µM | TGI [58]: > 100 µM | GI50 [22]: 29.6 µM | TGI [22]: > 100 µM | GI50 [23]: 15.2 µM | TGI [23]: 35.9 µM | GI50 [24]: 29.7 µM | TGI [24]: > 100 µM | GI50 [25]: 20 µM | TGI [25]: 48.7 µM | GI50 [26]: 18.6 µM | TGI [26]: 35.2 µM | GI50 [27]: 15.4 µM | TGI [27]: 40.5 µM | GI50 [28]: 48.2 µM | TGI [28]: > 100 µM | GI50 [29]: 23.2 µM | TGI [29]: 71 µM | GI50 [30]: 22.3 µM | TGI [30]: 55.8 µM | GI50 [31]: 20.9 µM | TGI [31]: 42.9 µM | GI50 [32]: 31.4 µM | TGI [32]: > 100 µM | GI50 [33]: 35.9 µM | TGI [33]: > 100 µM | GI50 [34]: 20 µM | TGI [34]: 44.8 µM | GI50 [35]: 20.3 µM | TGI [35]: 48.2 µM | GI50 [36]: 17.2 µM | TGI [36]: 34.5 µM | GI50 [37]: 20.8 µM | TGI [37]: 46.7 µM | GI50 [38]: 24.4 µM | TGI [38]: 73.3 µM | GI50 [39]: 25.2 µM | TGI [39]: 77.9 µM | GI50 [40]: 18.7 µM | TGI [40]: 39 µM | GI50 [41]: 24.6 µM | TGI [41]: > 100 µM | GI50 [42]: 16.9 µM | TGI [42]: 35 µM | GI50 [43]: 22.6 µM | TGI [43]: 57.3 µM | GI50 [44]: 29.1 µM | TGI [44]: 82.9 µM | GI50 [45]: 21 µM | TGI [45]: 47.6 µM | GI50 [46]: > 100 µM | TGI [46]: > 100 µM | GI50 [48]: 22.9 µM | TGI [48]: 53 µM | GI50 [50]: 21.9 µM | TGI [50]: 86.5 µM | GI50 [52]: 18.1 µM | TGI [52]: 42.1 µM | GI50 [53]: 31.3 µM | TGI [53]: 93.5 µM | GI50 [54]: 23.1 µM | TGI [54]: 64.7 µM | GI50 [55]: 15.8 µM | TGI [55]: 44.7 µM | GI50 [57]: 30.3 µM | TGI [57]: > 100 µM

Reference: PubChem BioAssay (NCI)
